According to patent US8063210B2, “Process and intermediate” (AstraZeneca AB, priority 2006, dated 2011):

Experiments:
[1] = system: human colorectal (SW620, HCT116, Colo205) and lung (A549, Calu-6) tumour xenografts; assay: tumour growth inhibition in human tumour xenografts; assay type: in vivo; conditions: panel of human colorectal (SW620, HCT116, Colo205) and lung (A549, Calu-6) tumour xenografts; with statistical significance
[2] = pro-drug conversion to the active moiety in human plasma; assay type: in vitro ADME

Which “inhibition of tumour growth” value [1] does the source give for CCN(CCCOc1ccc2c(Nc3cc(CC(=O)Nc4cccc(F)c4)n[nH]3)ncnc2c1)CCOP(=O)(O)O [AZD1152, 2-{ethyl[3-({4-[(5-{2-[(3-fluorophenyl)amino]-2-oxoethyl}-1H-pyrazol-3-yl)amino]quinazolin-7-yl}oxy)propyl]amino}ethyl dihydrogen phosphate] here?
Its value is “inhibit tumour growth”.

What about the “conversion of pro-drug to active moiety AZD1152 HQPA” value [2] of the same compound?
The value was “rapidly and completely converted”.
